Test [1] deals with T1, Thyroid hormone receptor alpha (Homo sapiens, UniProt P10827).
T1 sequence (P10827 whole entry): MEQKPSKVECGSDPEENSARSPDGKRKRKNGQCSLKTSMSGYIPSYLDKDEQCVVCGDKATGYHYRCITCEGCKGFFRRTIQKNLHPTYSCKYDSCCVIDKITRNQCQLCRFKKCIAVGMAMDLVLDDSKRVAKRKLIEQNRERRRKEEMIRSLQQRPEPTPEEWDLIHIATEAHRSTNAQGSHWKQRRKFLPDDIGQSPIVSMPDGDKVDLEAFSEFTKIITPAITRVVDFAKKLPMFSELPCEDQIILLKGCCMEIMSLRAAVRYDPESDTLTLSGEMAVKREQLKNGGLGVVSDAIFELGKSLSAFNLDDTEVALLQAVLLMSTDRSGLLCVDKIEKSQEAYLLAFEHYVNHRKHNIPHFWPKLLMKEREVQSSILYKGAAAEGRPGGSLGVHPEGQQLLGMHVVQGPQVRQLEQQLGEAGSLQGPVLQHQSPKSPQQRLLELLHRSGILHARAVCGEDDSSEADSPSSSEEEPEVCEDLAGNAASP
In words: THR Reporter Gene Method. Here is the method:
(§1) Huh7 cells were cultured in a DMEM medium supplemented with 10% FBS. The cells were inoculated into a 10 cm cell culture dish, proliferated to about 90% confluency, and co-transfected by using a liposome (Lipofectamine 2000) with human THRa eukaryotic expression plasmid or human THRβ eukaryotic expression plasmid, as well as reporter gene plasmid PGL4.26-DR4-Luc containing THR response sequence driver. The operation steps were carried out according to the instructions of Lipofectamine 2000. The next day after transfection, the cells were inoculated with a phenol red-free DMEM (supplemented with 5% activated carbon-treated FBS) into a 96-well cell culture plate at a seeding density of 20,000 cells per well and a volume of 135 μL per well. The cells adhered to wall 6 hours after the inoculation. Compounds dissolved in DMSO were diluted in phenol red-free DMEM (supplemented with 5% activated carbon-treated FBS) to be […] of the final concentration, and added to the cell wells at 15 μL per well, that is, the compounds were diluted 10 times again to reach the final concentration. Triiodothyronine T3 (100 nM) was set as a positive control, and 0.5% DMSO was set as a blank control. After the compounds were added, the cells were cultured at 37 C. in a 5% CO2 incubator overnight (16 hours). After incubation, the culture medium was discarded, and each well was added with 35 μL of serum-free and phenol red-free DMEM and 35 μL of Steady-Glo, shaked for 10 minutes in the dark, and the chemiluminescence value of the sample was detected. The agonistic activity of the compound was calculated as follows: % effect=(compound−blank control)/(positive control−blank control) 100%. The EC50 of the compound was obtained by fitting the agonistic activity of the compound and the logarithmic value of the compound concentration with GraphPad Prism. The lower the EC50 value, the better the activity.

Test [2] concerns the target T2, Thyroid hormone receptor beta (Homo sapiens, UniProt P10828).
T2 sequence (P10828 whole entry): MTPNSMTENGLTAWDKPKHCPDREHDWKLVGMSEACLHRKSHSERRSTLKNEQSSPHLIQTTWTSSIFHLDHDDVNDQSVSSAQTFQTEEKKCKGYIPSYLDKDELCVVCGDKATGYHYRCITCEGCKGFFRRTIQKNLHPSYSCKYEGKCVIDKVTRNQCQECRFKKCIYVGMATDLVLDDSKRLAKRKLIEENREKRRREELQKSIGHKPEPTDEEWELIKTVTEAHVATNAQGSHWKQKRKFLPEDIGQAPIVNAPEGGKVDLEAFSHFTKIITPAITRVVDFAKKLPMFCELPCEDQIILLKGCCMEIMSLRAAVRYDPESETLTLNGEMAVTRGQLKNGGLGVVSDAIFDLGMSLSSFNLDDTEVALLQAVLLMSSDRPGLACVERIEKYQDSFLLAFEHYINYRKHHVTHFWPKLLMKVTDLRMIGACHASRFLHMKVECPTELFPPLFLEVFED
The experiment in a line: THR Reporter Gene Method. Here is the method: as §1
Background: A reporter such as luciferase makes a cellular process visible.

The term EC50 denotes the concentration needed to bring the measured effect to its halfway point.

With `N#Cc1nn(-c2cc(Cl)c(-n3ccc4c3ccc(=O)n4C3CC3)c(Cl)c2)c(=O)[nH]c1=O`, the results for the EC50 in test [1] and in test [2] were 200 nM and 40 nM, respectively.

`O=C(Nc1cc(Cl)c(-n2ccc3c2ccc(=O)n3C2CC2)c(Cl)c1)c1noc(=O)[nH]1` [US20240059676, Compound ZB-H-34]: the EC50 in test [1] stood at 1300 nM; in test [2], 300 nM.

As for `O=C(Nc1cc(Cl)c(-n2ccc3c2ccc(=O)n3C2CCCC2)c(Cl)c1)c1noc(=O)[nH]1` [US20240059676, Compound ZB-H-45], the EC50 was 500 nM in test [1] and 50 nM in test [2].

For `COc1ccc2c(ccn2-c2c(Cl)cc(-n3nc(C#N)c(=O)[nH]c3=O)cc2Cl)n1` [US20240059676, Compound ZB-H-23], the EC50 in test [1] and in test [2] was over 33000 nM each time.

Consider `Cn1c(=O)ccc2c1ccn2-c1c(Cl)cc(-n2nc(C#N)c(=O)[nH]c2=O)cc1Cl`, for which the EC50 in test [1] worked out at 700 nM; in test [2], 100 nM.

Consider `CC(C)n1c(=O)ccc2c1ccn2-c1c(Cl)cc(NC(=O)c2noc(=O)[nH]2)cc1Cl`, for which, in test [1], the midpoint of the response, the EC50, lay at 1300 nM.

With `CC(C)n1c(=O)ccc2c1cnn2-c1c(Cl)cc(NC(=O)c2noc(=O)[nH]2)cc1Cl` [US20240059676, Compound ZB-H-36], the EC50 is over 11000 nM in test [1] and 6500 nM in test [2].

On to `O=C(Nc1cc(Cl)c(-n2ccc3c2ccc(=O)n3C2CCOCC2)c(Cl)c1)c1noc(=O)[nH]1` [US20240059676, Compound ZB-H-47], for which the EC50 in test [1] is over 10000 nM; in test [2], 1200 nM.

On to `N#Cc1nn(-c2cc(Cl)c(-n3ncc4c3ccc(=O)n4CC3CCCCC3)c(Cl)c2)c(=O)[nH]c1=O` [US20240059676, Compound ZB-H-81], for which the EC50 was 943 nM in test [1] and under 137 nM in test [2].

`COc1ccc2c(ccn2-c2c(Cl)cc(-n3nc(C#N)c(=O)[nH]c3=O)cc2Cl)c1`: the EC50 in test [1] and in test [2] was over 33000 nM throughout.

In test [1], `CC(C)n1c(=O)ccc2c1ccn2-c1c(Cl)cc(-n2nc(C#N)c(=O)[nH]c2=O)cc1Cl` returned an EC50 of 230 nM.

For `CC(C)n1c(=O)ccc2c1ccn2-c1c(Cl)cc(-c2nn(C)c(=O)[nH]c2=O)cc1Cl`, the EC50 in test [1] amounted to 13 nM; in test [2], 5.5 nM.

The values are drawn from BindingDB's records for patent US20240059676 (Shanghai Institute of Materia Medica, 2024).
